Laboratory results: US7166622B2, “Substituted phenylsulfonamide inhibitors of beta amyloid production” (Wyeth, priority 2002, dated 2007)
Read-outs that look alike come from different tables or passages of the source.

What was measured:
CHO-K1 cells = test: Toxicity in RRA (loss of luciferase signal); conditions: toxicity = loss of signal (<0.75 fold increase)
beta amyloid production = test: Repressor Release Assay (RRA); format: cell-based; conditions: for fold induction at 20 µg/mL / fold induction at 10 µg/mL: read-out: APPI Fold Increase; for APPI % of Example #98: relative to Example 98
Protocol: CHO-K1 cells were cultured in whole DMEM media (DMEM—High Glucose with 10% fetal bovine serum, 1% Non-essential Amino Acids, and 1% Penicillin-Streptomycin) at 37° C. with 5% CO2. Two million cells were plated into 10-cm dishes 24 hrs prior to transfection.
Transient transfections were completed as recommended by Gibco BRL using their Lipofectamine Plus system. First, 6 μg of pRSVO-luc and 6 μg of APP-lacI construct DNA were added to 460 μL Opti-Mem transfection media and incubated with 30 μL Plus reagent for 15 minutes. Then, a lipid mixture of 40 μL Lipofectamine reagent and 460 μL Opti-Mem transfection media was incubated with the DNA-Plus reagent mixture for 15 minutes. During the DNA-lipid incubation, the CHO-K1 cells were washed once and covered in 5.0 mL DMEM media without Penicillin-Streptomycin. The DNA-lipid preparation was then layered onto these cells and incubated at 37° C. overnight.
[…] transfected cells per well (100 μL total volume) were plated into sterile, opaque Packard 96-well Culture-Plates in clear DMEM whole media (DMEM—without phenol red) and incubated at 37° C. with 5% CO2 for 3-5 hours.
Compounds were diluted using two different protocols; one protocol was used for compounds supplied neat (weighed powder in vial) and the other protocol was used for compounds supplied in solution (20 mM in DMSO in 96-well plates). For both protocols, 25 mM Hepes and 25 mM Hepes/1% DMSO were prepared fresh to be used as diluent. The Hepes/DMSO was used as the diluent control on all experimental plates.
The following table depicts the steps for compound dilution (please note that the last step was the addition of compound to cells/media in tissue culture plate).
Because some compounds were present in 96-well format at 20 mM, the following represents the protocol for their dilution (note that an average molecular weight of these compounds was used to calculate these dilutions and as above, the last step was the addition of compound to cells/media in tissue culture plate).
Once the compounds were diluted, they were applied in duplicate on cells in tissue culture plates (prepared above). Cells were incubated with compound at 37° C. with 5% CO2 for an additional 36-48 hours.
Luciferase assays (LucLite reagent, Packard) were performed and were read on a Packard TopCount instrument. Media was removed from each 96-well plate and replaced with 100 μL PBS per well (with Mg^2+ and Ca^2+). An equal volume (100 μL) of the LucLite lysis/substrate buffer was added to each well and the plates were sealed and mixed in the dark on a rotary shaker for 15-30 minutes at room temperature. Luciferase readings were then taken on the TopCount instrument. Measurements were expressed as relative light units (RLU) and are calculated and analyzed in MS Excel as follows: […]

[1] = Conc 20 μg/ml, luciferase activity over diluent control
[2] = Conc 10 μg/ml, luciferase activity over diluent control

CC(C)C[C@H](CO)NS(=O)(=O)c1ccc(Br)cc1 [Example 102, 4-bromo-N-[(1R)-1-(hydroxymethyl)-3-methylbutyl]benzenesulfonamide]
(%)APPI Toxicity (CHO-K1 cells; Conc 20 μg/ml): 1 (1=non-toxic) | fold induction at 20 µg/mL (beta amyloid production; [1]): 1.5

CC[C@H](C)[C@H](NS(=O)(=O)c1ccc(F)cc1)C(O)(c1ccc(OC)cc1)c1ccc(OC)cc1 [Example 244, 4-fluoro-N-((1S,2S)-1-{hydroxy[bis(4-methoxyphenyl)]methyl}-2-methylbutyl) benzenesulfonamide]
(%)APPI Toxicity (CHO-K1 cells; Conc 10 μg/ml): 1 (1=non-toxic) | APPI Fold Increase (beta amyloid production; [2]): 1.51 fold | APPI % of Example #98 (beta amyloid production; Conc 10 μg/ml): 69.29%

C=CCC(O)(CC=C)[C@@H](NS(=O)(=O)c1ccccc1F)[C@@H](C)CC [Example 264, N-{(1S)-2-allyl-2-hydroxy-1-[(1S)-1-methylpropyl]-4-pentenyl}-2-fluorobenzenesulfonamide]
(%)APPI Toxicity (CHO-K1 cells; Conc 10 μg/ml): 1 (1=non-toxic) | fold induction at 10 µg/mL (beta amyloid production; [2]): 2

CCCCCC(O)[C@@H](NS(=O)(=O)c1ccccc1F)[C@@H](C)CC (stereo partly drawn) [Example 204, 2-fluoro-N-{(1S)-2-hydroxy-1-[(1S)-1-methylpropyl]heptyl}benzenesulfonamide]
(%)APPI Toxicity (CHO-K1 cells; Conc 10 μg/ml): 1 (1=non-toxic) | fold induction at 10 µg/mL (beta amyloid production; [2]): 3.73

CC(C)C[C@@H](C(C)C)[C@@H](CO)NS(=O)(=O)c1ccc(Br)cc1 [Example 87, 4-bromo-N-[(1S,2S)-1-(hydroxymethyl)-2-isopropyl-4-methylpentyl]benzenesulfonamide]
(%)APPI Toxicity (CHO-K1 cells; Conc 20 μg/ml, 1=non-toxic, 0=toxic): 1 (1=non-toxic) | fold induction at 20 µg/mL (beta amyloid production; Conc 20 μg/ml, luciferase activity (RLU) over diluent control): 8.8

CC[C@H](C)[C@H](NS(=O)(=O)c1ccc(F)cc1)C(O)c1ccc(SC)cc1 (stereo partly drawn) [Example 142, 4-fluoro-N-((1S,2 S)-1-{hydroxy[4-(methylsulfanyl)phenyl]methyl}-2-methylbutyl)benzenesulfonamide]
(%)APPI Toxicity (CHO-K1 cells; Conc 10 μg/ml): 1 (1=non-toxic) | fold induction at 10 µg/mL (beta amyloid production; [2]): 2.71

CC[C@H](C)[C@H](NS(=O)(=O)c1ccc(Cl)cc1)C(O)(c1ccccc1)c1ccccc1 [Example 227, 4-chloro-N-{(1S,2S)-1-[hydroxy(diphenyl)methyl]-2-methylbutyl}benzenesulfonamide]
(%)APPI Toxicity (CHO-K1 cells; Conc 10 μg/ml): 1 (1=non-toxic) | fold induction at 10 µg/mL (beta amyloid production; [2]): 1.65

O=S(=O)(N[C@H](CO)c1ccccc1)c1ccc(Br)cc1 [Example 101, 4-bromo-N-[(1S)-2-hydroxy-1-phenylethyl]benzenesulfonamide]
(%)APPI Toxicity (CHO-K1 cells; Conc 20 μg/ml): 1 (1=non-toxic) | fold induction at 20 µg/mL (beta amyloid production; [1]): 1.6

CC[C@H](C)[C@H](NS(=O)(=O)c1ccccc1F)C(O)C1CCCC1 (some centres unmarked) [Example 202]
APPI Fold Increase (beta amyloid production; [2]): 1.62 fold | APPI % of Example #98 (beta amyloid production; Conc 10 μg/ml): 55.79%

CC[C@H](C)[C@H](NS(=O)(=O)c1cccc(Cl)c1)C(O)(c1ccc(Cl)cc1)c1ccc(Cl)cc1 [Example 256, N-{(1S,2S)-1-[bis(4-chlorophenyl)(hydroxy)methyl]-2-methylbutyl}-3-chloro benzenesulfonamide]
(%)APPI Toxicity (CHO-K1 cells; Conc 10 μg/ml): 1 (1=non-toxic) | APPI Fold Increase (beta amyloid production; [2]): 1.5 fold | APPI % of Example #98 (beta amyloid production; Conc 10 μg/ml): 55.91%

CC[C@H](C)[C@@H](CO)NS(=O)(=O)c1cc(Cl)cc(Cl)c1 [Example 8, 3,5-dichloro-N-[(1S,2S)-1-(hydroxymethyl)-2-methylbutyl]benzenesulfonamide]
(%)APPI Toxicity (CHO-K1 cells; Conc 20 μg/ml): 1 (1=non-toxic) | fold induction at 20 µg/mL (beta amyloid production; [1]): 2

CC[C@H](C)[C@H](NS(=O)(=O)c1cccc(Cl)c1)C(O)c1ccc(Cl)cc1 (stereo partly drawn) [Example 196, 3-chloro-N-{(1S,2S)-1-[(4-chlorophenyl)(hydroxy)methyl]-2-methylbutyl}benzenesulfonamide]
(%)APPI Toxicity (CHO-K1 cells; Conc 10 μg/ml): 1 (1=non-toxic) | fold induction at 10 µg/mL (beta amyloid production; [2]): 1.78

COc1ccc([C@@H](C)[C@@H](CO)NS(=O)(=O)c2ccc(Cl)cc2)cc1 [Example 49, 4-Chloro-N-[(1S,2R)-1-(hydroxymethyl)-2-(4-methoxyphenyl)propyl]benzenesulfonamide]
(%)APPI Toxicity (CHO-K1 cells; Conc 20 μg/ml): 1 (1=non-toxic) | fold induction at 20 µg/mL (beta amyloid production; [1]): 2.5

CC[C@H](C)[C@H](NS(=O)(=O)c1ccc(Br)cc1)C(O)(c1ccc(Cl)cc1)c1ccc(Cl)cc1 [Example 218, N-{(1S,2S)-1-[bis(4-chlorophenyl) (hydroxy)methyl]-2-methylbutyl}-4-bromobenzenesulfonamide]
(%)APPI Toxicity (CHO-K1 cells; Conc 10 μg/ml): 1 (1=non-toxic) | fold induction at 10 µg/mL (beta amyloid production; [2]): 1.55

CCCCCC(O)(CCCCC)[C@@H](NS(=O)(=O)c1ccc(Br)cc1)[C@@H](C)CC [Example 212, 4-bromo-N-{(1S)-2-hydroxy-1-[(1S)-1-methylpropyl]-2-pentylheptyl}benzenesulfonamide]
(%)APPI Toxicity (CHO-K1 cells; Conc 10 μg/ml): 1 (1=non-toxic)

CC[C@H](C)[C@H](NS(=O)(=O)c1ccc(F)cc1)C(O)(c1cccc2ccccc12)c1cccc2ccccc12 [Example 248, 4-fluoro-N-((1S,2S)-1-{hydroxy[di(1-naphthyl)]methyl}-2-methylbutyl)benzenesulfonamide]
(%)APPI Toxicity (CHO-K1 cells; Conc 10 μg/ml): 1 (1=non-toxic)

CC[C@H](C)[C@H](NS(=O)(=O)c1ccc(Cl)cc1)C(O)C1CCCC1 (stereo partly drawn) [Example 166, 4-chloro-N-{(1S,2S)-1-[cyclopentyl(hydroxy)methyl]-2-methylbutyl}benzenesulfonamide]
(%)APPI Toxicity (CHO-K1 cells; Conc 10 μg/ml): 1 (1=non-toxic)

C=CCC(O)[C@@H](NS(=O)(=O)c1ccc(Cl)cc1)[C@@H](C)CC (stereo partly drawn) [Example 175, 4-chloro-N-{(1S)-2-hydroxy-1-[(1S)-1-methylpropyl]-4-pentenyl}benzenesulfonamide]
(%)APPI Toxicity (CHO-K1 cells; Conc 10 μg/ml): 1 (1=non-toxic)

CCCCCC(O)[C@@H](NS(=O)(=O)c1ccc(F)cc1)[C@@H](C)CC (stereo partly drawn) [Example 129, 4-fluoro-N-{(1S)-2-hydroxy-1-[(1S)-1-methylpropyl]heptyl}benzenesulfonamide]
(%)APPI Toxicity (CHO-K1 cells; Conc 10 μg/ml): 1 (1=non-toxic)

CCCCCCC(O)(CCCCCC)[C@@H](NS(=O)(=O)c1ccc(F)cc1)[C@@H](C)CC [Example 236, 4-fluoro-N-{(1S)-2-hexyl-2-hydroxy-1-[(1S)-1-methylpropyl]octyl}benzenesulfonamide]
(%)APPI Toxicity (CHO-K1 cells; Conc 10 μg/ml): 1 (1=non-toxic)

CC[C@H](C)[C@H](NS(=O)(=O)c1ccc(Br)cc1)C(O)(CC(C)C)CC(C)C [Example 214, 4-bromo-N-{(1S)-2-hydroxy-2-isobutyl-4-methyl-1-[(1S)-1-methylpropyl]pentyl} benzenesulfonamide]
(%)APPI Toxicity (CHO-K1 cells; Conc 10 μg/ml): 1 (1=non-toxic)

CC[C@H](C)[C@@H](CO)N(CCNC(=O)OC(C)(C)C)S(=O)(=O)c1ccc(Cl)cc1 [Example 42, tert-butyl 2-{([4-chlorophenyl)sulfonyl][(1S,2S)-1-(hydroxymethyl)-2-methylbutyl]amino} ethyl carbamate]
APPI Fold Increase (beta amyloid production; [1]): 1.9 fold | APPI % of Example #98 (beta amyloid production; Conc 20 μg/ml): 71.7%

CCCCCC(O)[C@@H](NS(=O)(=O)c1ccc(Cl)cc1)[C@@H](C)CC (stereo partly drawn) [Example 168, 4-chloro-N-{(1S)-2-hydroxy-1-[(1S)-1-methylpropyl]heptyl}benzenesulfonamide]
(%)APPI Toxicity (CHO-K1 cells; Conc 10 μg/ml): 1 (1=non-toxic)

C[C@H](NC(=O)Cc1cc(F)cc(F)c1)C(=O)N[C@H](C(=O)OC(C)(C)C)c1ccccc1 [DAPT, reference compound]
fold increase in luciferase activity (beta amyloid production; at 10 μg/mL, luciferase activity over diluent control, transfected CHO-K1 cells): 6.0-28.1 fold increase

CCCCCCC(O)[C@@H](NS(=O)(=O)c1ccc(F)cc1)[C@@H](C)CC (stereo partly drawn) [Example 128, 4-fluoro-N-{(1S)-2-hydroxy-1-[(1S)-1-methylpropyl]octyl}benzenesulfonamide]
(%)APPI Toxicity (CHO-K1 cells; Conc 10 μg/ml): 1 (1=non-toxic)

CC[C@H](C)[C@H](NS(=O)(=O)c1ccc(Br)cc1)C(O)C(C)(C)C (stereo partly drawn) [Example 149, 4-bromo-N-{(1S)-2-hydroxy-3,3-dimethyl-1-[(1S)-1-methylpropyl]butyl}benzenesulfonamide]
(%)APPI Toxicity (CHO-K1 cells; Conc 10 μg/ml): 1 (1=non-toxic)

CC[C@H](C)[C@H](NS(=O)(=O)c1ccc(Br)cc1)C(O)CC(C)C (stereo partly drawn) [Example 150, 4-bromo-N-{(S)-2-hydroxy-4-methyl-1-[(1S)-1-methylpropyl]pentyl}benzenesulfonamide]
(%)APPI Toxicity (CHO-K1 cells; Conc 10 μg/ml): 1 (1=non-toxic)
